Holding throughout (format): in vivo
The subject of data set [1] is corn. The experiment in a line: Herbicidal pre-emergence action: damage to corn. The source says: Seeds of monocotyledonous and dicotyledonous weed and crop plants are placed into sandy loam in cardboard pots and covered with soil. The herbicidal compositions according to the invention, formulated in the form of wettable powders or emulsion concentrates, are then applied as an aqueous suspension or emulsion with a water application rate of 600 to 800 l/ha (converted) in different dosages to the surface of the covering soil. After the treatment, the pots are placed in a greenhouse and kept under good growth conditions for the weeds. Optical scoring of the damage to the plants or the emergence damage is carried out after emergence of the test plants after a test period of 3 to 4 weeks, by comparison with untreated controls.
(§1) The herbicidal activity or damage is in each case stated in percent: 100% activity=the plants have died, 0% activity=like untreated control plants. The abbreviation “a.i.” means active ingredient.

Data set [2] concerns corn. The protocol:
Seeds of monocotyledonous and dicotyledonous weed and crop plants are placed into sandy loam in wood fiber pots or in plastic pots, covered with soil and cultivated in a greenhouse, including during the vegetation period outdoors outside of the greenhouse, under good growth conditions. 2-3 weeks after sowing, the test plants are treated at the one- to three-leaf stage. The herbicidal compositions according to the invention, formulated as wettable powders (WP) or liquid (EC) are, in various dosages with a water application rate of 300 l/ha (converted), with added wetting agent (0.2 to 0.3%), sprayed onto the plants and the surface of the soil. 3 to 4 weeks after the treatment of the test plants, the effect of the preparations is rated visually in comparison to untreated controls.
The abbreviation “a.i.” means active ingredient.

Data set [3] has as its system corn. The following applies: seed treatment, post-emergence; reduction of corn damage by seed dressing with A3 0.5 g/kg; printed in the line of the herbicide alone.
Data set [4] concerns corn. In words: Treatment of corn seed with safener, herbicide pre-emergence. The conditions noted are these: reduction of corn damage by seed dressing with A3 0.5 g/kg, printed in the line of the herbicide alone. The protocol:
Corn seed is treated (dressed) with various amounts of a safener and then placed-in sandy loam and covered with soil. The herbicides, formulated as emulsifiable concentrates or dust, are applied using a water application rate of 300 to 800 l/ha (converted) at various dosages to the surface of the covering soil. The optical scoring of the damage to the useful plants is carried out 3 to 5 weeks after the treatment.
as §1
In Tables 3 and 4, the dosage of the herbicide (component B) is stated in gram per hectare and that of the safener (component A) is stated in gram per kilogram of seed.

[5] abbreviates: pre-emergence, reduction of corn damage by adding safener A3 to the herbicide, printed in the line of the herbicide alone, spans both lines.
Setting [6] is: post-emergence, reduction of corn damage by adding safener A3 to the herbicide, printed in the line of the herbicide alone, spans both lines.

The structures appear in SMILES notation. Where two headings read alike, the source gives them in different places.

Turning to `COc1nn(C(=O)NS(=O)(=O)c2ccccc2OC(F)(F)F)c(=O)n1C` [Component B1.1, flucarbazone], the results for the “Damage reduced by” value in the data set with corn [1] (setting [5]), in the data set with corn [2] (setting [6]) and in the data set on corn [3] were 78%, 70% and 80%, respectively.

For the molecule `COc1cc(OC)nc(NC(=O)NS(=O)(=O)c2cc(NC=O)ccc2C(=O)N(C)C)n1` [Component B1.2, foramsulfuron], the “Damage reduced by” value in the data set on corn [2] (in vivo) is recorded as 100%.

As for `COc1nc(C)nc(NC(=O)NS(=O)(=O)c2cc(I)ccc2C(=O)O)n1` [Component B1.3, iodosulfuron], in the data set with corn [1] (in vivo), the “Damage reduced by” value was found to be 69%.

With `COc1cc(OC)n2nc(S(=O)(=O)Nc3c(Cl)ccc(C)c3Cl)nc2n1` [Component B1.4, metosulam], in the data set with corn [1] (in vivo), the “Damage reduced by” value stood at 33%. Regarding `COc1nc(C)nc(=NC(=O)NS(=O)(=O)c2ccccc2C(=O)O)[nH]1` [Component B1.5, metsulfuron], the “Damage reduced by” value with corn [2] (setting [6]) and in the data set on corn [3] was 80% in each case. Take `COc1cc(OC)nc(NC(=O)NS(=O)(=O)c2ncccc2C(=O)N(C)C)n1` [Component B1.6, nicosulfuron]: the “Damage reduced by” value in the data set with corn [1] (setting [5]) came out at 67%. For the molecule `COc1nc(C)nc(NC(=O)NS(=O)(=O)c2ccccc2CCC(F)(F)F)n1` [Component B1.8, prosulfuron], the “Damage reduced by” value in the data set with corn [1] (in vivo) is on record as 67%.

With `COc1nc(C)nc(NC(=O)NS(=O)(=O)c2ccsc2C(=O)O)n1` [Component B1.9, thifensulfuron], the “Damage reduced by” value in the data set on corn [1] (setting [5]) is listed as 100%.

In the case of `COc1nc(C)nc(N(C)C(=O)NS(=O)(=O)c2ccccc2C(=O)O)n1` [Component B1.10, tribenuron], the “Damage reduced by” value worked out at 60% in the data set with corn [4] and 50% with corn [1] (setting [5]). On to `CCOc1nc(F)cc2nc(S(=O)(=O)Nc3c(Cl)cccc3C(=O)OC)nn12` [Component B1.11, cloransulam-methyl], for which the “Damage reduced by” value in the data set on corn [1] (in vivo) is on record as 43%; in the data set with corn [2] (in vivo), 50%. Take `COc1cc(Cl)nc(NC(=O)NS(=O)(=O)c2ccccc2C(=O)O)n1` [Component B1.12, chlorimuron]: the “Damage reduced by” value in the data set with corn [2] (setting [6]) was 86%; in the data set on corn [3], 71%. Consider `CCOc1ccccc1OS(=O)(=O)NC(=O)Nc1nc(OC)cc(OC)n1` [Component B1.13, ethoxysulfuron], for which the “Damage reduced by” value with corn [1] (in vivo) and with corn [2] (in vivo) was 50% in each case.

As to `Cc1ccn2nc(S(=O)(=O)Nc3c(F)cccc3F)nc2n1` [Component B1.16, flumetsulam], the results for the “Damage reduced by” value in the data set with corn [1] (in vivo) and in the data set with corn [2] (in vivo) were 57% and 43%, respectively. On to `COc1cc(OC)nc(NC(=O)NS(=O)(=O)c2c(C(=O)O)c(Cl)nn2C)n1` [Component B1.17, halosulfuron], for which the “Damage reduced by” value with corn [2] (in vivo) stood at 100%. On to `COCc1cnc(C2=NC(C)(C(C)C)C(=O)N2)c(C(=O)O)c1` (stereo not drawn) [Component B1.18, imazamox], for which the “Damage reduced by” value in the data set on corn [2] (setting [6]) is 40%.

`Cc1cnc(C2=NC(=O)C(C)(C(C)C)N2)c(C(=O)O)c1` (stereo not drawn) [Component B1.19, imazapic]: the “Damage reduced by” value with corn [2] (in vivo) amounted to 33%. On to `CCc1cnc(C2=NC(C)(C(C)C)C(=O)N2)c(C(=O)O)c1` (stereo not drawn) [Component B1.21, imazethapyr], for which the “Damage reduced by” value in the data set with corn [2] (in vivo) was 71%. `COc1cc(OC)nc(NC(=O)NS(=O)(=O)c2cc(CNS(C)(=O)=O)ccc2C(=O)O)n1` [Component B1.22, mesosulfuron]: the “Damage reduced by” value in the data set on corn [1] (setting [5]) is 56%. As to `CCCOc1nn(C(=O)[N-]S(=O)(=O)c2ccccc2C(=O)OC)c(=O)n1C.[Na+]` [Component B1.23, propoxycarbazone], the “Damage reduced by” value in the data set with corn [3] stood at 68%. For the molecule `COc1cc(OC)nc(NC(=O)NS(=O)(=O)N(C)S(C)(=O)=O)n1` [Component B1.25, amidosulfuron], the “Damage reduced by” value with corn [2] (in vivo) came to 80%. As to `COc1nc(C)nc(NC(=O)NS(=O)(=O)c2ccccc2Cl)n1` [Component B1.26, chlorsulfuron], the “Damage reduced by” value in the data set with corn [2] (in vivo) turned out to be 86%.

For the molecule `COc1nc(C)nc(NC(=O)NS(=O)(=O)c2ccccc2OCCCl)n1` [Component B1.28, triasulfuron], the “Damage reduced by” value in the data set on corn [1] (in vivo) turned out to be 71%. As to `COc1cc(OC)nc(NC(=O)NS(=O)(=O)c2nc(C(F)(F)F)ccc2C(=O)O)n1` [Component B1.31, flupyrsulfuron], the “Damage reduced by” value with corn [2] (setting [6]) and in the data set on corn [3] was 75% in each case.

For the molecule `COc1cc(OC)nc(NC(=O)NS(=O)(=O)c2c(C(=O)O)cnn2C)n1` [Component B1.32, pyrazosulfuron], in the data set with corn [1] (setting [5]), the “Damage reduced by” value stood at 38%.

With `CCS(=O)(=O)c1cccnc1S(=O)(=O)NC(=O)Nc1nc(OC)cc(OC)n1` [Component B1.36, rimsulfuron], the “Damage reduced by” value with corn [2] (in vivo) stood at 100%. `CS(=O)(=O)c1ccc(C(=O)C2C(=O)CCCC2=O)c(Cl)c1` [Component B2.1, sulcotrione]: the “Damage reduced by” value in the data set on corn [2] (setting [6]) was found to be 77%. Same read-out and setting: in the case of `CS(=O)(=O)c1ccc(C(=O)C2C(=O)CCCC2=O)c([N+](=O)[O-])c1` [Component B2.3, mesotrione] it was 83%; in that of `Cc1c(C(=O)c2cnn(C)c2O)ccc(S(C)(=O)=O)c1C1=NOCC1` [Component B2.4, topramezone], 64%. On to `CSc1nnc(C(C)(C)C)c(=O)n1N` [Component B3.1, metribuzin], for which, in the data set on corn [1] (setting [5]), the “Damage reduced by” value came out at 50%. In the case of `CCCN(CCC)C(=O)SCC` [Component B4.1, EPTC], in the data set on corn [2] (setting [6]), the “Damage reduced by” value came to 62%.

Regarding `CCc1cccc(C)c1N(C(=O)CCl)[C@@H](C)COC` [Component B5.2, S-metolachlor], the “Damage reduced by” value with corn [1] (setting [5]) stood at 78%. Turning to `COc1c(Cl)ccc(Cl)c1C(=O)O` [Component B7.1, dicamba], the “Damage reduced by” value in the data set with corn [2] (in vivo) was 100%. Regarding `CCC(CC)Nc1c([N+](=O)[O-])cc(C)c(C)c1[N+](=O)[O-]` [Component B10.1, pendimethalin], the “Damage reduced by” value in the data set with corn [1] (setting [5]) turned out to be 54%.

For the origin of these results see patent US20070010399A1, “Crop plant-compatible herbicidal compositions comprising herbicides and safeners” (priority 2005, published 2007).
